10 compounds from PubChem BioAssay (NCI) can be followed below.

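Interpolation was linear, between the two tested concentrations surrounding the appropriate level; five concentrations were tested over 48 hours in 96-well plates. GI50 marks 50% less growth. TGI is the concentration that stops growth completely.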

Common to all, as to assay: DTP human tumour cell line panel, 48 h
In experiment [1] the test system is 786-0 renal.
For experiment [2], the system named is COLO 205 colon.
Experiment [3] relates to EKVX NSCLC.
For experiment [4], the system named is HL-60(TB) leukemia.
For experiment [5], the system named is LOX IMVI melanoma.
The test system of experiment [6] is OVCAR-5 ovarian.
For experiment [7], the system named is SF-295 CNS.
In experiment [8] the test system is SK-MEL-28 melanoma.
Experiment [9] has as its system SK-MEL-5 melanoma.
In experiment [10] the test system is NCI-H522 lung.

Consider `Cc1cc(C)c([O-])c(-[n+]2c(-c3ccccc3)cc(-c3ccccc3)cc2-c2ccccc2)c1`, for which the TGI in experiment [1] stood at 19.7 µM; in experiment [2], 12.2 µM; in experiment [3], 21.4 µM; in experiment [4], 4.16 µM; in [5], 11.1 µM; in [6], 18.4 µM. The results for the TGI in experiment [7], in experiment [8] and in experiment [9] were 17.1 µM, 14.2 µM and 5.71 µM, respectively.
With `CC(=O)NNc1nc(C)c(C(=O)/C=C/c2ccc(N(C)C)cc2)s1`, the total growth inhibition concentration (TGI) in experiment [1], in experiment [2], in experiment [3], in [4], in experiment [5] and in experiment [10] was over 100 µM each time. The concentration for total growth inhibition (TGI) in experiment [6], in experiment [7], in experiment [8] and in experiment [9] was over 100 µM throughout.
Take `O=C1CC[C@@H](S(=O)(=O)c2ccccc2)[C@H](/C=C/c2ccccc2)O1`: the TGI in [1], in experiment [2], in experiment [3], in [4], in experiment [5] and in experiment [10] was over 100 µM in each case. Besides, the TGI in experiment [6], in [7], in experiment [8] and in experiment [9] was over 100 µM throughout.
`CCP(C)(=O)CC`: the TGI in [1], in experiment [2], in experiment [3], in experiment [4], in experiment [5] and in [6] was over 100 µM throughout. Besides, the TGI in experiment [7], in [8] and in [9] was over 100 µM each time.
For `CC(=O)[CH-]C(=O)c1ccccc1.CC(=O)[CH-]C(=O)c1ccccc1.CC(=O)[CH-]C(=O)c1ccccc1.[Cl-].[Hf+4]`, the GI50 in [1] is 25.7 µM; in experiment [2], 34 µM; in [3], 24.2 µM; in experiment [4], 25.8 µM; in experiment [5], 14.4 µM; in experiment [10] it was 26.5 µM. Besides, the GI50 in experiment [6] is 22.8 µM; in experiment [7] it was 19.8 µM; in experiment [8], 23.6 µM; in experiment [9], 32.5 µM. Further, the total growth inhibition concentration (TGI) in experiment [1] is over 100 µM; in experiment [2] it was over 100 µM; in experiment [3], 92.9 µM; in [4], over 100 µM; in experiment [5] it was 92.2 µM; in experiment [10], over 100 µM. For the same compound, the TGI in [6] was 71.8 µM; in experiment [7], over 100 µM; in experiment [8] it was 85.3 µM; in experiment [9] it was over 100 µM.
Regarding `CCN1CCCCCCCCCC(=N/O)/C(=N\O)C1`, the TGI in [1], in experiment [3], in [4], in experiment [5], in experiment [10] and in experiment [6] was over 100 µM in each case. The TGI in [7], in experiment [8] and in [9] was over 100 µM throughout.
In the case of `Oc1c(Cl)cc(Cl)c(Cl)c1Cc1c(O)c(Cl)cc(Cl)c1Cl`, the GI50 in experiment [1] is 1.96 µM; in experiment [2] it was 2.68 µM; in [3] it was 0.973 µM; in [4], 0.678 µM; in experiment [5] it was 2.39 µM; in experiment [10], 0.521 µM. Also, the GI50 was 6.14 µM in experiment [6], 0.34 µM in [7], 2.13 µM in [8] and 0.712 µM in experiment [9]. In addition, the TGI came to 11.8 µM in experiment [1]; 15 µM in experiment [2]; 16.7 µM in experiment [3]; 7.96 µM in experiment [4]; 11.2 µM in [5]; 9.66 µM in [10]. The TGI in [6] is 19.1 µM; in experiment [7] it was 2.05 µM; in [8], 15.9 µM; in experiment [9] it was 3.04 µM.
With `CC[C@]1(O)CC2CN(CCc3c([nH]c4ccccc34)C(C(=O)OC)(c3cc4c(cc3OC)N(C=O)[C@H]3[C@@](O)(C(=O)OC)[C@H](OC(C)=O)[C@]5(CC)[C@@H]6C[C@@H]6CN6CC[C@]43[C@@H]65)C2)C1` (stereo not given in full), the 50% growth inhibitory concentration (GI50) in experiment [1], in experiment [2], in experiment [3], in [4], in [5] and in experiment [10] was under 0.00325 µM throughout. The GI50 in experiment [6], in [7] and in experiment [9] was under 0.00325 µM throughout. For the same compound, the total growth inhibition concentration (TGI) in experiment [1] is 6.65 µM; in experiment [2] it was under 0.00325 µM; in experiment [3], over 32.5 µM; in [4], under 0.00325 µM; in experiment [5], over 26 µM; in experiment [10], under 0.00325 µM. The total growth inhibition concentration (TGI) was over 32.5 µM in experiment [6], 0.325 µM in experiment [7] and 0.0119 µM in experiment [9].
As for `COC(=O)NC1=Nc2ccccc2C(=O)NN1`, the TGI in experiment [1], in experiment [2], in experiment [3], in experiment [4], in experiment [5] and in experiment [10] was over 100 µM in each case. The TGI in experiment [6], in experiment [7], in [8] and in [9] was over 100 µM in each case.
Regarding `COc1ccc(C(=O)C(c2ccc(OC)cc2)C2(O)C(=O)Nc3c(Cl)cc(Cl)cc32)cc1` (stereo not given), the total growth inhibition concentration (TGI) in experiment [1] turned out to be 29 µM; in [2], 74.3 µM; in [3] it was 38.9 µM; in experiment [4] it was 19.7 µM; in experiment [5], 44 µM; in experiment [10], 35.2 µM. Moreover, the total growth inhibition concentration (TGI) in experiment [6] was 40.9 µM; in experiment [7], 39.9 µM; in experiment [8] it was 44.4 µM; in [9], 34.7 µM.

One may read the TGI as the concentration at which net growth stops. A high value points to less potent growth arrest. Usually GI50 stands for the concentration that inhibits growth by half.
